Our source for the GI50 and TGI values is PubChem BioAssay (NCI).

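Each compound was tested at five concentrations against cells in 96-well plates for 48 hours. GI50 = concentration required for 50% inhibition of growth. TGI marks complete inhibition of growth.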

Test systems include NCI-H460 lung; MOLT-4 leukemia; HCT-15 colon; SF-295 CNS; CCRF-CEM leukemia; SK-MEL-28 melanoma; SF-539 CNS; SW-620 colon; HL-60(TB) leukemia; RPMI-8226 leukemia.
Common to all, as to test: inhibition of tumour cell growth, NCI panel, 48 h

Consider `COc1ccc(OC)c(C(=O)c2oc3ccc(Br)cc3c2N)c1`, for which the GI50 in the experiment with NCI-H460 lung was 375 nM; in the experiment on MOLT-4 leukemia, 425 nM; in the experiment with HCT-15 colon, 214 nM; in the experiment on SF-295 CNS, 286 nM; in the experiment with CCRF-CEM leukemia it was 332 nM; in the experiment with SK-MEL-28 melanoma it was 610 nM. The GI50 is 237 nM in the experiment with SF-539 CNS, 332 nM in the experiment with SW-620 colon, 270 nM with HL-60(TB) leukemia and 370 nM in the experiment on RPMI-8226 leukemia. Besides, the TGI with NCI-H460 lung was 12400 nM; in the experiment on MOLT-4 leukemia, 23700 nM; with HCT-15 colon, 14200 nM; in the experiment on SF-295 CNS it was 2610 nM; in the experiment with CCRF-CEM leukemia, 24100 nM; in the experiment with SK-MEL-28 melanoma, 26200 nM. In addition, the TGI in the experiment with SF-539 CNS was 712 nM; in the experiment with SW-620 colon it was more than 66800 nM; in the experiment on HL-60(TB) leukemia, 10300 nM; with RPMI-8226 leukemia, 6510 nM.

In the case of `COC(=O)C12C3C4C1C1C2C3C41NC(=O)c1csc([C@@H](C[C@H](C(C)C)N(C)C(=O)[C@@H](NC(=O)[C@H]2CCCCN2C)C2CC2)OC(C)=O)n1` (some centres undefined), the GI50 in the experiment with NCI-H460 lung was 48.9 nM; with MOLT-4 leukemia, 7.29 nM; in the experiment with HCT-15 colon it was 138 nM; in the experiment with SF-295 CNS, 47.6 nM; in the experiment with CCRF-CEM leukemia, 7.32 nM; in the experiment on SF-539 CNS it was 5.74 nM. In addition, the GI50 was 7.46 nM with SW-620 colon, 3.56 nM in the experiment on HL-60(TB) leukemia and 6.96 nM with RPMI-8226 leukemia. The TGI with NCI-H460 lung, in the experiment on MOLT-4 leukemia, in the experiment with HCT-15 colon, in the experiment on SF-295 CNS, with CCRF-CEM leukemia and in the experiment on SK-MEL-28 melanoma was more than 33300 nM each time. The TGI was 110 nM in the experiment on SF-539 CNS, more than 33300 nM with SW-620 colon, 7.77 nM with HL-60(TB) leukemia and more than 33300 nM with RPMI-8226 leukemia.
